Experimental findings from patent US6936585B2, “Corticotropin releasing factor 2 receptor agonists” (priority 2002, dated 2005) are described below.

The target in one test is T1, CRF1R (Homo sapiens, UniProt P34998).
T1 sequence (P34998 24-415): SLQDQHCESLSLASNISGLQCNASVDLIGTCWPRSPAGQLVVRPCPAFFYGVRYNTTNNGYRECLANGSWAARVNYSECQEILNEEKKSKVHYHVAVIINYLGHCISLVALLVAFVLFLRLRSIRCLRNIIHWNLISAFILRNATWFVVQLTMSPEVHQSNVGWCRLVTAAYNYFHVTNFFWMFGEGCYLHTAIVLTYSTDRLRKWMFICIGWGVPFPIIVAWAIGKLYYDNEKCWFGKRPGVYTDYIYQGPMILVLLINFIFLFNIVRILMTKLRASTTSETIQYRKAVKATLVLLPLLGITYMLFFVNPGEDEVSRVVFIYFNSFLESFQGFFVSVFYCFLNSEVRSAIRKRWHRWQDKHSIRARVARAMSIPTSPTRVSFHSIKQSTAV
Kind of test: CRF1R agonist activation (EC50 / Emax), called comparative CRF binding. It is filed as cell-based. As to conditions: for Emax: read-out: CRF1R Emax; for pEC50: read-out: CRF1R EC50. From the text:
(§1) The pharmacological activity and selectivity of the peptides of present invention can be determined using published test procedures. See, e.g, U.S. patent application Ser. No. 09/799,978 (now issued U.S. Pat. No. 6,670,140). Because CRF2R and CRF1R are homologous proteins, it is expected that a certain proportion of agonists for CRF2R will also function as agonists of CRF1R. As discussed above, activation of CRF1R induces activation of the HPA axis since increased corticosteroid production leads to skeletal muscle atrophy. In most cases in which an increase in muscle mass or function is desired, it is not desirable to activate the HPA axis.
(§2) Cell-based assays include the steps of contacting cells which express CRF1R or CRF2R with a peptide of the present invention or control and measuring activation of the CRFR by measuring the expression or activity of components of the CRFR signal transduction pathways.
(§3) For example, after contact with a peptide of the present invention, lysates of the cells can be prepared and assayed for induction of cAMP. cAMP is induced in response to Gαs activation. Because Gαs is activated by receptors other than CRFR and because a test peptide may be exerting its effect through CRFRs or by another mechanism, two control comparisons are relevant for determining whether the peptide increases levels of cAMP via activation of a CRFR. One control compares the cAMP level of cells contacted with the peptide and the cAMP level of cells contacted with a control compound (i.e., the vehicle in which the peptide is dissolved).
(§4) In one example, cAMP induction is measured with the use of DNA constructs containing the cAMP responsive element linked to any of a variety of reporter genes can be introduced into cells expressing CRFRs. Such reporter genes include, but are not limited to, chloramphenicol acetyltransferase (CAT), luciferase, glucuronide synthetase, growth hormone, fluorescent proteins (e.g., Green Fluorescent Protein), or alkaline phosphatase. Following exposure of the cells to the peptide, the level of reporter gene expression can be quantitated to determine the peptide's ability to increase cAMP levels and thus determine the peptide's ability to activate the CRFR.
(§5) In addition to using cells expressing full length CRFRs, cells can be engineered which express CRFRs containing the ligand binding domain of the receptor coupled to, or physically modified to contain, reporter elements or to interact with signaling proteins. For example, a wild type CRFR or CRFR fragment can be fused to a G-protein resulting in activation of the fused G-protein upon agonist binding to the CRFR portion of the fusion protein. […] In addition, alternative pathways for induction of the CRE reporter could be eliminated to reduce basal levels.

Another test concerns the target T2, CRF2R (Homo sapiens, UniProt Q13324).
T2 sequence (Q13324 1-411): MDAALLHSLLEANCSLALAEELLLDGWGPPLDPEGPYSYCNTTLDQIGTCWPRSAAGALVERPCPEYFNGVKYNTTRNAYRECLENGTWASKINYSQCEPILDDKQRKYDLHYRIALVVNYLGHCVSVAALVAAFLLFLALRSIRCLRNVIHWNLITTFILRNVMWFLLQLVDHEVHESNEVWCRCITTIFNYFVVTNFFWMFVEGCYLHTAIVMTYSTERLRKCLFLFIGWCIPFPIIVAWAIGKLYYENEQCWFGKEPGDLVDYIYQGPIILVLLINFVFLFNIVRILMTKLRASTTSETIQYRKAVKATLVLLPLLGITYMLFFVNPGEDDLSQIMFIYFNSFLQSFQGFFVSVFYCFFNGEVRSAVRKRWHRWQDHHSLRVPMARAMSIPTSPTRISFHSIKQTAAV
Kind of test: CRF2R agonist activation (EC50 / Emax), called comparative CRF binding. It is filed as cell-based. As to conditions: read-out: CRF2R Emax.
Source text: as §1, §2, §3, §4, §5

pEC50: −log10 of the molar value. Ends that are not written are not given here. Peptide text beside a SMILES is read from it.

For `CC[C@H](C)[C@H](N)C(=O)N[C@H](C(=O)N[C@@H](CC(C)C)C(=O)N[C@@H](CO)C(=O)N[C@@H](CC(C)C)C(=O)N[C@@H](CC(=O)O)C(=O)N[C@H](C(=O)N1CCC[C@H]1C(=O)N[C@H](C(=O)NCC(=O)N[C@@H](CC(C)C)C(=O)N[C@@H](CC(C)C)C(=O)N[C@@H](CCC(N)=O)C(=O)N[C@@H](CCC(=O)O)C(=O)N[C@@H](CC(C)C)C(=O)N[C@@H](CC(C)C)C(=O)N[C@@H](CCC(=O)O)C(=O)N[C@@H](CCSC)C(=O)N[C@@H](C)C(=O)N[C@@H](CCCNC(=N)N)C(=O)N[C@@H](C)C(=O)N[C@@H](CCC(=O)O)C(=O)N[C@@H](CCC(N)=O)C(=O)N[C@@H](CC(C)C)C(=O)N[C@@H](C)C(=O)N[C@@H](CCC(N)=O)C(=O)N[C@@H](CCC(N)=O)C(=O)N[C@@H](C)C(=O)N[C@@H](Cc1c[nH]cn1)C(=O)N[C@@H](CO)C(=O)N[C@@H](CC(N)=O)C(=O)N[C@@H](CCCNC(=N)N)C(=O)N[C@@H](CCCCN)C(=O)N[C@@H](CC(C)C)C(=O)N[C@@H](CCSC)C(=O)N[C@@H](CCC(=O)O)C(=O)N[C@H](C(=O)N[C@H](C(N)=O)[C@@H](C)CC)[C@@H](C)CC)[C@@H](C)CC)C(C)C)C(C)C` [compound 1] (H-IVLSLDVPIGLLQELLEMARAEQLAQQAHSNRKLMEII-NH2; N-terminus assumed), the figures for the Emax at CRF1R and on CRF2R were 64% and 100%, respectively. Regarding `CC[C@H](C)[C@H](N)C(=O)N[C@H](C(=O)N[C@@H](CC(C)C)C(=O)N[C@@H](CO)C(=O)N[C@@H](CC(C)C)C(=O)N[C@@H](CC(=O)O)C(=O)N[C@H](C(=O)N1CCC[C@H]1C(=O)N[C@H](C(=O)NCC(=O)N[C@@H](CC(C)C)C(=O)N[C@@H](CC(C)C)C(=O)N[C@@H](CCC(N)=O)C(=O)N[C@H](C(=O)N[C@@H](CC(C)C)C(=O)N[C@@H](CC(C)C)C(=O)N[C@@H](CCC(=O)O)C(=O)N[C@@H](CCC(N)=O)C(=O)N[C@@H](CCC(=O)O)C(=O)N[C@@H](CCCCN)C(=O)N[C@@H](C)C(=O)N[C@@H](CCCNC(=N)N)C(=O)N[C@@H](C)C(=O)N[C@@H](C)C(=O)N[C@@H](CCCNC(=N)N)C(=O)N[C@@H](CCC(=O)O)C(=O)N[C@@H](CCC(N)=O)C(=O)N[C@@H](C)C(=O)N[C@H](C(=O)N[C@H](C(=O)N[C@@H](CC(N)=O)C(=O)N[C@@H](C)C(=O)N[C@@H](CCCNC(=N)N)C(=O)N[C@H](C(=O)N[C@@H](CC(C)C)C(=O)N[C@@H](C)C(=O)N[C@@H](CCCNC(=N)N)C(=O)N[C@H](C(N)=O)C(C)C)[C@@H](C)CC)[C@@H](C)O)[C@@H](C)O)[C@@H](C)CC)[C@@H](C)CC)C(C)C)C(C)C` [compound 107] (H-IVLSLDVPIGLLQILLEQEKARAAREQATTNARILARV-NH2; N-terminus assumed), the Emax at CRF2R is 87.9%. Turning to `CC[C@H](C)[C@H](N)C(=O)N[C@H](C(=O)N[C@@H](CC(C)C)C(=O)N[C@@H](CO)C(=O)N[C@@H](CC(C)C)C(=O)N[C@@H](CC(=O)O)C(=O)N[C@H](C(=O)N1CCC[C@H]1C(=O)N[C@H](C(=O)NCC(=O)N[C@@H](CC(C)C)C(=O)N[C@@H](CC(C)C)C(=O)N[C@@H](CCC(N)=O)C(=O)N[C@H](C(=O)N[C@@H](CC(C)C)C(=O)N[C@@H](CC(C)C)C(=O)N[C@@H](CCC(=O)O)C(=O)N[C@@H](CCC(N)=O)C(=O)N[C@@H](C)C(=O)N[C@@H](CCCCN)C(=O)N[C@@H](C)C(=O)N[C@@H](CCCNC(=N)N)C(=O)N[C@@H](C)C(=O)N[C@@H](C)C(=O)N[C@@H](CCCNC(=N)N)C(=O)N[C@@H](CCC(=O)O)C(=O)N[C@@H](CCC(N)=O)C(=O)N[C@@H](C)C(=O)N[C@H](C(=O)N[C@H](C(=O)N[C@@H](CC(N)=O)C(=O)N[C@@H](C)C(=O)N[C@@H](CCCNC(=N)N)C(=O)N[C@H](C(=O)N[C@@H](CC(C)C)C(=O)N[C@@H](C)C(=O)N[C@@H](CCCNC(=N)N)C(=O)N[C@H](C(N)=O)C(C)C)[C@@H](C)CC)[C@@H](C)O)[C@@H](C)O)[C@@H](C)CC)[C@@H](C)CC)C(C)C)C(C)C` [compound 127] (H-IVLSLDVPIGLLQILLEQAKARAAREQATTNARILARV-NH2; N-terminus assumed), the pEC50 on CRF1R is less than 7.00. For `CC[C@H](C)[C@H](N)C(=O)N[C@H](C(=O)N[C@@H](CC(C)C)C(=O)N[C@@H](CO)C(=O)N[C@@H](CC(C)C)C(=O)N[C@@H](CC(=O)O)C(=O)N[C@H](C(=O)N1CCC[C@H]1C(=O)N[C@H](C(=O)NCC(=O)N[C@@H](CC(C)C)C(=O)N[C@@H](CC(C)C)C(=O)N[C@@H](CCC(N)=O)C(=O)N[C@H](C(=O)N[C@@H](CC(C)C)C(=O)N[C@@H](CC(C)C)C(=O)N[C@@H](CCC(=O)O)C(=O)N[C@@H](CCC(N)=O)C(=O)N[C@H](C(=O)N[C@@H](CCCCN)C(=O)N[C@@H](C)C(=O)N[C@@H](CCCNC(=N)N)C(=O)N[C@@H](C)C(=O)N[C@@H](C)C(=O)N[C@@H](CCCNC(=N)N)C(=O)N[C@@H](CCC(=O)O)C(=O)N[C@@H](CCC(N)=O)C(=O)N[C@@H](C)C(=O)N[C@H](C(=O)N[C@H](C(=O)N[C@@H](CC(N)=O)C(=O)N[C@@H](C)C(=O)N[C@@H](CCCNC(=N)N)C(=O)N[C@H](C(=O)N[C@@H](CC(C)C)C(=O)N[C@@H](C)C(=O)N[C@@H](CCCNC(=N)N)C(=O)N[C@H](C(N)=O)C(C)C)[C@@H](C)CC)[C@@H](C)O)[C@@H](C)O)[C@@H](C)O)[C@@H](C)CC)[C@@H](C)CC)C(C)C)C(C)C` [compound 129] (H-IVLSLDVPIGLLQILLEQTKARAAREQATTNARILARV-NH2; N-terminus assumed), on CRF1R, the pEC50 was less than 7.00.

In the case of `CC[C@H](C)[C@H](N)C(=O)N[C@H](C(=O)N[C@@H](CC(C)C)C(=O)N[C@@H](CO)C(=O)N[C@@H](CC(C)C)C(=O)N[C@@H](CC(=O)O)C(=O)N[C@H](C(=O)N1CCC[C@H]1C(=O)N[C@H](C(=O)NCC(=O)N[C@@H](CC(C)C)C(=O)N[C@@H](CC(C)C)C(=O)N[C@@H](CCC(N)=O)C(=O)N[C@H](C(=O)N[C@@H](CC(C)C)C(=O)N[C@@H](CC(C)C)C(=O)N[C@@H](CCC(=O)O)C(=O)N[C@@H](CCC(N)=O)C(=O)N[C@@H](C)C(=O)N[C@@H](CCCNC(=N)N)C(=O)N[C@@H](C)C(=O)N[C@@H](CCCNC(=N)N)C(=O)N[C@@H](C)C(=O)N[C@@H](C)C(=O)N[C@@H](CCCNC(=N)N)C(=O)N[C@@H](CCC(=O)O)C(=O)N[C@@H](CCC(N)=O)C(=O)N[C@@H](C)C(=O)N[C@H](C(=O)N[C@H](C(=O)N[C@@H](CC(N)=O)C(=O)N[C@@H](C)C(=O)N[C@@H](CCCNC(=N)N)C(=O)N[C@H](C(=O)N[C@@H](CC(C)C)C(=O)N[C@@H](C)C(=O)N[C@@H](CCCNC(=N)N)C(=O)N[C@H](C(=O)N[C@@H](CCSC)C(N)=O)C(C)C)[C@@H](C)CC)[C@@H](C)O)[C@@H](C)O)[C@@H](C)CC)[C@@H](C)CC)C(C)C)C(C)C` [compound 356] (H-IVLSLDVPIGLLQILLEQARARAAREQATTNARILARVM-NH2), the Emax on CRF1R was determined as 9%. Turning to “SQEPPISLDLPLELLREVLEMTKADQLAQQAHSNRKLLDIA-NH2 [compound 89]”, at CRF2R, the Emax worked out at 12.7%.
